Earlier results on three substances are cited in patent US6348583B1, “Poly(ether-thioether), poly(ether-sulfoxide) and poly(ether-sulfone) nucleic acids” (Bio-Rad Laboratories, Inc., priority 1999, dated 2002).

Where two headings read alike, the source gives them in different places.

For series [1] the following is noted: aqueous buffers.
The test system of the next series is dA10. The following applies: duplex with dA10.

As to “d(CpT)8: methylphosphonate oligonucleotide analog, SEQ ID NO:21 (DNA CTCTCTCTCTCTCTCT; methylphosphonate backbone, further chemistry not given here)”, the solubility entry in series [1] (result in words) is on record as “soluble up to millimolar concentrations”.

“d(ApG)8: methylphosphonate oligonucleotide analog, SEQ ID NO:22 (DNA GAGAGAGAGAGAGAGA; methylphosphonate backbone, further chemistry not given here)”: the solubility result in series [1] is on record as “less than 0.1 mM”.

Take “dT10: native DNA dT10, duplex with dA10 (SEQ ID NO:18) (TTTTTTTTTT)”: the Tm value result with dA10 is “about 24 °C”.
